These results are taken from US20130281638A1, “TRICYCLO COMPOUND-POLYMER CONJUGATE” (SUCAMPO AG, priority 2012, published 2013).

Series [1] is described as follows: Incorporation of Tacrolimus into MPEG-hexPLA polymer micelles. Conditions: loadings up to 300 mg Tacrolimus per gram MPEGhexPLA; aqueous micelle solution, acetone/water sonication protocol. The series is classed as physicochemical. As for the experimental part:
Objective is the evaluation of the methoxypoly(ethylene glycol)-hexyl-substituted poly(lactic acid) [MPEG-hexPLA] polymer micelles' potential to incorporate and solubilize Tacrolimus.
The incorporation studies were carried out by a standard formulation protocol. Briefly, a defined amount of Tacrolimus was dissolved in acetone and added dropwise under sonication into water, followed by evaporation of the organic solvent and equilibration of the micelle solution overnight.
As it can be seen, for loadings up to 300 mg Tacrolimus per gram MPEGhexPLA, loading efficiencies higher than 70% could be obtained by this simple procedure. FIG. 2 presents the corresponding concentrations of Tacrolimus in the aqueous solution. It has to be noted, that these solutions can be further concentrated by simple evaporation to obtain higher drug concentrations, and keeping the transparency of the solutions.

The nature of series [2]: Storage stability of Tacrolimus MPEG-hexPLA micelle formulations at 4° C. In kind it is physicochemical. Conditions: stored at 4° C. The source says:
The non-incorporated active compound can be removed by a simple filtration.

For series [3] the following is noted: cited from earlier work.

For `C=CCC1/C=C(\C)CC(C)CC(OC)C2OC(O)(C(=O)C(=O)N3CCCCC3C(=O)OC(/C(C)=C/C3CCC(O)C(OC)C3)C(C)C(O)CC1=O)C(C)CC2OC` (stereo not shown) [Tacrolimus, 17-allyl-1,14-dihydroxy-12-[2-(4-hydroxy-3-methoxycyclohexyl)-1-methylvinyl]-23,25-dimethoxy-13,19,21,27-tetramethyl-11,28-dioxa-4-azatricyclo[22.3.1.0^4,9]octacos-18-ene-2,3,10,16-tetraone], the loading efficiencies result in series [1] was “higher than 70%”. Also, the stability on storage result in series [2] (formulation with a target of 150 mg/g) is listed as “best stable formulation”. In addition, the “stability on storage (precipitation)” value in series [2] (higher (than 150 mg/g target) and possibly oversaturated formulations) is on record as “slight drug precipitation”. Moreover, the water solubility entry in series [3] is given as “poorly water-soluble”.
